Reference: patent publication US20260191968A1, “PROTAC DEGRADERS OF MLLT1 AND/OR MLLT3” (DARK BLUE THERAPEUTICS LTD, priority 2024, published 2026)

Key:
MLLT1 = biological target: T1, MLLT1 (Homo sapiens, UniProt Q03111); assay: MLLT1 degradation assay in MV4-11 cells (JESS chemiluminescent detection), three concentrations, 24 h; format: cell-based; conditions: with respect to DMSO control
T1 construct: host or cells: MV4-11
T1 sequence (Q03111 1-559): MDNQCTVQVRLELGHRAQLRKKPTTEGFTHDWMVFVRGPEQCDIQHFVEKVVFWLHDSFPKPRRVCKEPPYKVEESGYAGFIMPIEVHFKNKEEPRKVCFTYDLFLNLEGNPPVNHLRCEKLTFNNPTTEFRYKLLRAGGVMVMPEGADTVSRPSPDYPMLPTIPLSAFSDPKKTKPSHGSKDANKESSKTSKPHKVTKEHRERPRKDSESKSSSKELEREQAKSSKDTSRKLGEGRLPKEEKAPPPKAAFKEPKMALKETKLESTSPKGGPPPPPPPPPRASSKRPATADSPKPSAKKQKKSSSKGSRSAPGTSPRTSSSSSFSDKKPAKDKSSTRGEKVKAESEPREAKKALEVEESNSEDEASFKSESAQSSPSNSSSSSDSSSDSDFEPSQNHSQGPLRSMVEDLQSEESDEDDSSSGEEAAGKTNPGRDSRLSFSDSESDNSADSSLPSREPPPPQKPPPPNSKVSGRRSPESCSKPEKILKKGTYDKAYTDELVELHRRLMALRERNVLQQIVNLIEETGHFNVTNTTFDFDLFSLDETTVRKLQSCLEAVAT
Method in brief: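 MV4-11 cells treated 24 h at 37° C, 5% CO2 with 1000, 100 and 10 nM compound (0.1% DMSO final). MLLT1 quantified by automated capillary chemiluminescent immunodetection; band peak area expressed as % degradation relative to DMSO control.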

MV4-11 cells = assay: MV4-11 cellular proliferative assay, Assay Format B (CTG 2.0, 168 h); format: cell-based; conditions: Homo sapiens, 168 h (7 days), CTG 2.0, read-out: IC50 (MV4-11 cellular proliferative assay, Assay format B)
Method in brief: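 MV4-11 cells seeded overnight in IMDM + 10% FBS, then exposed to 10-point, 3-fold dilutions from 1 uM or 100 nM top concentration (0.3% DMSO final) for 168 h at 37 °C. CTG 2.0 luminescence read; % viability vs DMSO control fitted by four-parameter logistic regression.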

| MLLT1% Degradation @ 0.01 μM (MLLT1) | MLLT1% Degradation @ 0.1 μM (MLLT1) | MLLT1% Degradation @ 1 μM (MLLT1) | IC50 (MV4-11 cells) | Compound |
| --- | --- | --- | --- | --- |
| A (Category A: A ≥ 75% degradation) | A (Category A: A ≥ 75% degradation) | A (Category A: A ≥ 75% degradation) | ≤ 100 nM | CN1CCC[C@@H]1c1cc2cnc(NC(=O)c3ccc(OC4CCN(CC5CCN(c6cccc7c6CN(C6CCC(=O)NC6=O)C7=O)CC5)CC4)cc3)cc2[nH]1 (mixture of isomers) [Example 121, 4-((1-((1-(2-(2,6-dioxopiperidin-3-yl)-1-oxoisoindolin-4-yl)piperidin-4-yl)methyl)piperidin-4-yl)oxy)-N-(2-((R)-1-methylpyrrolidin-2-yl)-1H-pyrrolo[3,2-c]pyridin-6-yl)benzamide] |
| A (Category A: A ≥ 75% degradation) | A (Category A: A ≥ 75% degradation) | A (Category A: A ≥ 75% degradation) | ≤ 100 nM | CN1CCC[C@@H]1c1cc2cnc(NC(=O)c3cnc(N4CCC(CC#Cc5cccc6c5CN(C5CCC(=O)NC5=O)C6=O)CC4)cn3)cc2[nH]1 (stereo partly drawn) [Example 154, 5-(4-(3-(2-(2,6-dioxopiperidin-3-yl)-1-oxoisoindolin-4-yl)prop-2-yn-1-yl)piperidin-1-yl)-N-(2-((R)-1-methylpyrrolidin-2-yl)-1H-pyrrolo[3,2-c]pyridin-6-yl)pyrazine-2-carboxamide] |
| A (Category A: A ≥ 75% degradation) | A (Category A: A ≥ 75% degradation) | A (Category A: A ≥ 75% degradation) | ≤ 100 nM | CN1CCC[C@@H]1c1cc2cnc(NC(=O)c3ccc(OCCC4CCN(c5cccc6c5CN(C5CCC(=O)NC5=O)C6=O)CC4)nc3)cc2[nH]1 (stereo partly drawn) [Example 158, 6-(2-(1-(2-(2,6-dioxopiperidin-3-yl)-1-oxoisoindolin-4-yl)piperidin-4-yl)ethoxy)-N-(2-((R)-1-methylpyrrolidin-2-yl)-1H-pyrrolo[3,2-c]pyridin-6-yl)nicotinamide] |
| A (Category A: A ≥ 75% degradation) | A (Category A: A ≥ 75% degradation) | A (Category A: A ≥ 75% degradation) | ≤ 100 nM | CN1CCC[C@@H]1c1cc2cnc(NC(=O)c3ccc(N4CCN(CCCC#Cc5cccc6c5CN(C5CCC(=O)NC5=O)C6=O)CC4)nc3)cc2[nH]1 (stereo partly drawn) [Example 149, 6-(4-(5-(2-(2,6-dioxopiperidin-3-yl)-1-oxoisoindolin-4-yl)pent-4-yn-1-yl)piperazin-1-yl)-N-(2-((R)-1-methylpyrrolidin-2-yl)-1H-pyrrolo[3,2-c]pyridin-6-yl)nicotinamide] |
| A (Category A: A ≥ 75% degradation) | A (Category A: A ≥ 75% degradation) | A (Category A: A ≥ 75% degradation) | ≤ 100 nM | CN1CCC[C@@H]1c1cc2cnc(NC(=O)c3cccc(CCCCC#Cc4cccc5c4CN(C4CCC(=O)NC4=O)C5=O)c3)cc2[nH]1 (stereo partly drawn) [Example 96, 3-(6-(2-(2,6-dioxopiperidin-3-yl)-1-oxoisoindolin-4-yl)hex-5-yn-1-yl)-N-(2-((R)-1-methylpyrrolidin-2-yl)-1H-pyrrolo[3,2-c]pyridin-6-yl)benzamide] |
| A (Category A: A ≥ 75% degradation) | A (Category A: A ≥ 75% degradation) | A (Category A: A ≥ 75% degradation) | ≤ 100 nM | CN1CCC[C@@H]1c1cc2cnc(NC(=O)c3ccc(N4CCC(OC5CCN(c6cccc7c6CN(C6CCC(=O)NC6=O)C7=O)CC5)CC4)nc3)cc2[nH]1 (stereo partly drawn) [Example 145, 6-(4-((1-(2-(2,6-dioxopiperidin-3-yl)-1-oxoisoindolin-4-yl)piperidin-4-yl)oxy)piperidin-1-yl)-N-(2-((R)-1-methylpyrrolidin-2-yl)-1H-pyrrolo[3,2-c]pyridin-6-yl)nicotinamide] |
| A (Category A: A ≥ 75% degradation) | A (Category A: A ≥ 75% degradation) | A (Category A: A ≥ 75% degradation) | ≤ 100 nM | CN1CCC[C@@H]1c1cc2cnc(NC(=O)c3ccc(-c4cnn(CCCC5CCN(c6cccc7c6CN(C6CCC(=O)NC6=O)C7=O)CC5)c4)cc3F)cc2[nH]1 (stereo partly drawn) [Example 212, 4-(1-(3-(1-(2-(2,6-dioxopiperidin-3-yl)-1-oxoisoindolin-4-yl)piperidin-4-yl)propyl)-1H-pyrazol-4-yl)-2-fluoro-N-(2-((R)-1-methylpyrrolidin-2-yl)-1H-pyrrolo[3,2-c]pyridin-6-yl)benzamide] |
| A (Category A: A ≥ 75% degradation) | A (Category A: A ≥ 75% degradation) | A (Category A: A ≥ 75% degradation) | ≤ 100 nM | CN1CCC[C@@H]1c1cc2cnc(NC(=O)c3ccc(N4CCC(OCC5CCN(c6cccc7c6CN(C6CCC(=O)NC6=O)C7=O)CC5)CC4)nc3)cc2[nH]1 (stereo partly drawn) [Example 147, 6-(4-((1-(2-(2,6-dioxopiperidin-3-yl)-1-oxoisoindolin-4-yl)piperidin-4-yl)methoxy)piperidin-1-yl)-N-(2-((R)-1-methylpyrrolidin-2-yl)-1H-pyrrolo[3,2-c]pyridin-6-yl)nicotinamide] |
| A (Category A: A ≥ 75% degradation) | A (Category A: A ≥ 75% degradation) | A (Category A: A ≥ 75% degradation) | ≤ 100 nM | CN1CCC[C@@H]1c1cc2cnc(NC(=O)c3ccc(CCCC#Cc4cccc5c4CN(C4CCC(=O)NC4=O)C5=O)cc3F)cc2[nH]1 (stereo partly drawn) [Example 94, 4-(5-(2-(2,6-dioxopiperidin-3-yl)-1-oxoisoindolin-4-yl)pent-4-yn-1-yl)-2-fluoro-N-(2-((R)-1-methylpyrrolidin-2-yl)-1H-pyrrolo[3,2-c]pyridin-6-yl)benzamide] |
| A (Category A: A ≥ 75% degradation) | A (Category A: A ≥ 75% degradation) | A (Category A: A ≥ 75% degradation) | ≤ 100 nM | CN1CCC[C@@H]1c1cc2cnc(NC(=O)c3ccc(CCCCC#Cc4cccc(N5CCC(=O)NC5=O)n4)cc3)cc2[nH]1 [Example 9, (R)-4-(6-(6-(2,4-dioxotetrahydropyrimidin-1(2H)-yl)pyridin-2-yl)hex-5-yn-1-yl)-N-(2-(1-methylpyrrolidin-2-yl)-1H-pyrrolo[3,2-c]pyridin-6-yl)benzamide] |
| A (Category A: A ≥ 75% degradation) | A (Category A: A ≥ 75% degradation) | A (Category A: A ≥ 75% degradation) | ≤ 100 nM | CN1CCC[C@@H]1c1cc2cnc(NC(=O)c3ccc(N4CCC(OC5CCN(c6cccc7c6C(=O)N(C6CCC(=O)NC6=O)C7=O)CC5)CC4)nc3)cc2[nH]1 (stereo partly drawn) [Example 148, 6-(4-((1-(2-(2,6-dioxopiperidin-3-yl)-1,3-dioxoisoindolin-4-yl)piperidin-4-yl)oxy)piperidin-1-yl)-N-(2-((R)-1-methylpyrrolidin-2-yl)-1H-pyrrolo[3,2-c]pyridin-6-yl)nicotinamide] |

| Compound | MLLT1% Degradation @ 0.01 μM (MLLT1) | MLLT1% Degradation @ 0.1 μM (MLLT1) | MLLT1% Degradation @ 1 μM (MLLT1) | IC50 (MV4-11 cells) |
| --- | --- | --- | --- | --- |
| CN1CCC[C@@H]1c1cc2cnc(NC(=O)c3ccc(-c4cnn(CCCC5CCN(c6cccc7c6C(=O)N(C6CCC(=O)NC6=O)C7=O)CC5)c4)cc3F)cc2[nH]1 (stereo partly drawn) [Example 210, 4-(1-(3-(1-(2-(2,6-dioxopiperidin-3-yl)-1,3-dioxoisoindolin-4-yl)piperidin-4-yl)propyl)-1H-pyrazol-4-yl)-2-fluoro-N-(2-((R)-1-methylpyrrolidin-2-yl)-1H-pyrrolo[3,2-c]pyridin-6-yl)benzamide] | B (Category B: 50% ≤ B < 75% degradation) | A (Category A: A ≥ 75% degradation) | A (Category A: A ≥ 75% degradation) | ≤ 100 nM |
| CN1CCC[C@@H]1c1cc2cnc(NC(=O)c3ccc(N4CCC(OC=C=Cc5cccc6c5CN(C5CCC(=O)NC5=O)C6=O)CC4)nc3)cc2[nH]1 (stereo partly drawn) [Example 195, 6-(4-((3-(2-(2,6-dioxopiperidin-3-yl)-1-oxoisoindolin-4-yl)propa-1,2-dien-1-yl)oxy)piperidin-1-yl)-N-(2-((R)-1-methylpyrrolidin-2-yl)-1H-pyrrolo[3,2-c]pyridin-6-yl)nicotinamide] | A (Category A: A ≥ 75% degradation) | B (Category B: 50% ≤ B < 75% degradation) | A (Category A: A ≥ 75% degradation) | ≤ 100 nM |
